In patent publication US8501238B2, “Anti-infective agents and uses thereof” (priority 2007, dated 2013):
pEC50, pIC50: −log10 of the molar value.

What was measured:
[1] = biological target: T1, HCV polymerase 1A (Δ21 NS5B) (Hepatitis C virus genotype 1a, UniProt P27958); experiment: HCV Polymerase Inhibition Assay (1a); type: biochemical
T1 construct: 20 to 50nM Δ21 NS5B
Procedure, shortened: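 Δ21 NS5B reactions contained 20 μM CTP, 20 μM ATP, 1 μM ³H-UTP and 5 nM template RNA and ran for 2–4 h at room temperature. RNA was then spermine-precipitated, filter-captured and counted by scintillation. IC50 came from a tight-binding (Morrison) nonlinear fit of retained cpm against inhibitor concentration.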

[2] = biological target: T2, HCV polymerase 1B (Δ21 NS5B) (Hepatitis C virus genotype 1b, UniProt P26663); experiment: biochemical
T2 construct: 20 to 50nM Δ21 NS5B
Procedure, shortened: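 Inhibitor pre-incubated 15 min at room temperature with Δ21 NS5B (strain BK or H77, 20–50 nM), 60–125 μM GTP, 2 mM MnCl2, pH 7.4. Reaction started with 20 μM CTP, 20 μM ATP, 1 μM 3H-UTP and 5 nM template RNA, run 2–4 h at room temperature. Spermine-precipitated RNA filter-captured and scintillation-counted; IC50 from tight-binding equation fit.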

[3] = test system: genotype 1a-H77 subgenomic replicon cell line; experiment: microbe, parasite or virus in culture; type: cell-based, HCV; details: Hepatitis C virus, 72 h, read-out: EC50 1a
[4] = test system: genotype 1b-Con1 subgenomic replicon cell line; experiment: microbe, parasite or virus in culture; type: cell-based, HCV; details: Hepatitis C virus, 72 h, read-out: EC50 1b

T1 sequence (P27958 2421-2990, stated change not applied): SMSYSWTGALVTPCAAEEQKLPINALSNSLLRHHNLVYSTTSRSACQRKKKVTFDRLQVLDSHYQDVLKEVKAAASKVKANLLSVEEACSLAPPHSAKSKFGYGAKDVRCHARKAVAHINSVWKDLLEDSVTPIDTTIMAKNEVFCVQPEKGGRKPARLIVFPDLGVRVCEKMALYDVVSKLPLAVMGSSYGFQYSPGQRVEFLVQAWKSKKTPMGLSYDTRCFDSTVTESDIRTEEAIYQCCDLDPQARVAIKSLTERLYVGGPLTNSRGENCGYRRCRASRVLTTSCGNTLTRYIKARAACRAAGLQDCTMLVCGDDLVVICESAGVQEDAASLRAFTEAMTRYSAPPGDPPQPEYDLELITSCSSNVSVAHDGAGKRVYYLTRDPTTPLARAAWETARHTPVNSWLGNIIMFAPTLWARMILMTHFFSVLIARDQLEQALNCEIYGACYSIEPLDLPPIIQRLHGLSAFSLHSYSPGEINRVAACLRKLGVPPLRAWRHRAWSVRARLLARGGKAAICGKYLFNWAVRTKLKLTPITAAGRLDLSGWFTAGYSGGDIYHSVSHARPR
T2 sequence (P26663 2420-2989, stated change not applied): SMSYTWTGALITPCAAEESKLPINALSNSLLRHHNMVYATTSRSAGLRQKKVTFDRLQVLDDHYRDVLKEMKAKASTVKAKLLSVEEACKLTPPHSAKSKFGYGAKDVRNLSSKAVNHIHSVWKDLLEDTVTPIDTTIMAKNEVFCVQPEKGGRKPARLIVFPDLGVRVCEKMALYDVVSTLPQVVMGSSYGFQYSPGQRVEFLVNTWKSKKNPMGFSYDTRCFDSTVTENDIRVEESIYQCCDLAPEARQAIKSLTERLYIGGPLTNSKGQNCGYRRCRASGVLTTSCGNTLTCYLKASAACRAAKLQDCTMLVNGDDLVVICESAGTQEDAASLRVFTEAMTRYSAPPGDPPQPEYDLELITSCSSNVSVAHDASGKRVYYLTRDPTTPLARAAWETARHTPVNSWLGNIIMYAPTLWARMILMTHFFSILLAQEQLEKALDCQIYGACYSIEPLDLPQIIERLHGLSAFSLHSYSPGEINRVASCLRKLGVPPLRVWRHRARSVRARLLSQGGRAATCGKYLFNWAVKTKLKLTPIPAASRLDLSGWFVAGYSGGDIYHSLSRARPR

CC(C)(C)c1cc(-n2ccc(=O)[nH]c2=O)cc(-c2ccc3cc(NS(C)(=O)=O)ccc3c2)c1Cl [IB-L0-2.14, N-(6-(3-tert-butyl-2-chloro-5-(2,4-dioxo-3,4-dihydropyrimidin-1(2H)-yl)phenyl)naphthalen-2-yl)methanesulfonamide]
pIC50 [1]: > 8.00 | pIC50 [2]: > 8.00 | pEC50 [3]: 6.00 to 7.00 | pEC50 [4]: 7.00 to 8.00 | melting point: > 280 °C

CCOc1c(-c2ccc3cc(NS(C)(=O)=O)ccc3c2)cc(-n2ccc(=O)[nH]c2=O)cc1C(C)(C)C [IB-L0-2.23, N-(6-(3-tert-butyl-5-(2,4-dioxo-3,4-dihydropyrimidin-1(2H)-yl)-2-ethoxyphenyl)naphthalen-2-yl)methanesulfonamide]
pIC50 [1]: 7.00 to 8.00 | pIC50 [2]: > 8.00 | pEC50 [3]: 6.00 to 7.00 | pEC50 [4]: 7.00 to 8.00 | melting point: 196 to 202 °C

COc1c(-c2ccc3cc(NS(C)(=O)=O)ccc3c2)cc(-n2ccc(=O)[nH]c2=O)cc1C(C)(C)CO [IB-L0-2.54, N-(6-(5-(2,4-dioxo-3,4-dihydropyrimidin-1(2H)-yl)-3-(1-hydroxy-2-methylpropan-2-yl)-2-methoxyphenyl)naphthalen-2-yl)methanesulfonamide]
pIC50 [1]: > 8.00 | pIC50 [2]: 7.00 to 8.00 | pEC50 [3]: 7.00 to 8.00 | pEC50 [4]: 7.00 to 8.00 | melting point: 256 to 257 °C

COc1c(-c2ccc3cc(NS(C)(=O)=O)ccc3c2)cc(-n2ccc(=O)[nH]c2=O)cc1-c1ccc(C)o1 [IB-L0-2.58, N-(6-(5-(2,4-dioxo-3,4-dihydropyrimidin-1(2H)-yl)-2-methoxy-3-(5-methylfuran-2-yl)phenyl)naphthalen-2-yl)methanesulfonamide]
pIC50 [1]: > 8.00 | pIC50 [2]: 7.00 to 8.00 | pEC50 [3]: 7.00 to 8.00 | pEC50 [4]: > 8.00 | melting point: 174 to 178 °C

COc1c(-c2ccc3cc(NS(C)(=O)=O)ccc3c2)cc(-n2ccc(=O)[nH]c2=O)cc1C(F)(F)C(F)(F)F [IB-L0-2.60, N-(6-(5-(2,4-dioxo-3,4-dihydropyrimidin-1(2H)-yl)-2-methoxy-3-(perfluoroethyl)phenyl)naphthalen-2-yl)methanesulfonamide]
pIC50 [1]: > 8.00 | pIC50 [2]: 7.00 to 8.00 | pEC50 [3]: 6.00 to 7.00 | pEC50 [4]: 7.00 to 8.00 | melting point: 162 to 165 °C

COc1c(-c2ccc3cc(NS(C)(=O)=O)ccc3c2)cc(-n2ccc(=O)[nH]c2=O)cc1-c1cccs1 [IB-L0-2.61, N-(6-(5-(2,4-dioxo-3,4-dihydropyrimidin-1(2H)-yl)-2-methoxy-3-(thiophen-2-yl)phenyl)naphthalen-2-yl)methanesulfonamide]
pIC50 [1]: > 8.00 | pIC50 [2]: 7.00 to 8.00 | pEC50 [3]: 6.00 to 7.00 | pEC50 [4]: 7.00 to 8.00

COc1c(-c2ccoc2)cc(-n2ccc(=O)[nH]c2=O)cc1-c1ccc2cc(NS(C)(=O)=O)ccc2c1 [IB-L0-2.64, N-(6-(5-(2,4-dioxo-3,4-dihydropyrimidin-1(2H)-yl)-3-(furan-3-yl)-2-methoxyphenyl)naphthalen-2-yl)methanesulfonamide]
pIC50 [1]: 7.00 to 8.00 | pIC50 [2]: 7.00 to 8.00 | pEC50 [3]: 6.00 to 7.00 | pEC50 [4]: > 8.00

COCC(C)(C)c1cc(-n2ccc(=O)[nH]c2=O)cc(-c2ccc3cc(NS(C)(=O)=O)ccc3c2)c1OC [IB-L0-2.66, N-(6-(5-(2,4-dioxo-3,4-dihydropyrimidin-1(2H)-yl)-2-methoxy-3-(1-methoxy-2-methylpropan-2-yl)phenyl)naphthalen-2-yl)methanesulfonamide]
pIC50 [1]: 7.00 to 8.00 | pIC50 [2]: 7.00 to 8.00 | pEC50 [3]: 6.00 to 7.00 | pEC50 [4]: 7.00 to 8.00

COc1c(-c2ccc3cc(NS(C)(=O)=O)ccc3c2)cc(-n2ccc(=O)[nH]c2=O)cc1S(C)(=O)=O [IB-L0-2.68, N-(6-(5-(2,4-dioxo-3,4-dihydropyrimidin-1(2H)-yl)-2-methoxy-3-(methylsulfonyl)phenyl)naphthalen-2-yl)methanesulfonamide]
pIC50 [1]: 7.00 to 8.00 | pIC50 [2]: 7.00 to 8.00 | pEC50 [3]: < 6.00 | pEC50 [4]: 6.00 to 7.00

COc1c(Br)cc(-n2ccc(=O)[nH]c2=O)cc1-c1ccc2cc(NS(C)(=O)=O)ccc2c1 [IB-L0-2.69, N-(6-(3-bromo-5-(2,4-dioxo-3,4-dihydropyrimidin-1(2H)-yl)-2-methoxyphenyl)naphthalen-2-yl)methanesulfonamide]
pIC50 [1]: 7.00 to 8.00 | pIC50 [2]: 7.00 to 8.00 | pEC50 [3]: 6.00 to 7.00 | pEC50 [4]: 7.00 to 8.00

COC(=O)C(C)(C)c1cc(-n2ccc(=O)[nH]c2=O)cc(-c2ccc3cc(NS(C)(=O)=O)ccc3c2)c1OC [IB-L0-2.70, methyl 2-(5-(2,4-dioxo-3,4-dihydropyrimidin-1(2H)-yl)-2-methoxy-3-(6-(methylsulfonamido)naphthalen-2-yl)phenyl)-2-methylpropanoate]
pIC50 [1]: 7.00 to 8.00 | pIC50 [2]: 6.00 to 7.00 | pEC50 [3]: < 6.00 | pEC50 [4]: 6.00 to 7.00

COc1c(-c2ccccc2)cc(-n2ccc(=O)[nH]c2=O)cc1-c1ccc2cc(NS(C)(=O)=O)ccc2c1 [IB-L0-2.71, N-(6-(5-(2,4-dioxo-3,4-dihydropyrimidin-1(2H)-yl)-2-methoxy-biphenyl-3-yl)naphthalen-2-yl)methanesulfonamide]
pIC50 [1]: 6.00 to 7.00 | pIC50 [2]: 6.00 to 7.00 | pEC50 [3]: 6.00 to 7.00 | pEC50 [4]: 7.00 to 8.00

COC(=O)c1cc(-n2ccc(=O)[nH]c2=O)cc(-c2ccc3cc(NS(C)(=O)=O)ccc3c2)c1OC [IB-L0-2.72, methyl 5-(2,4-dioxo-3,4-dihydropyrimidin-1(2H)-yl)-2-methoxy-3-(6-(methylsulfonamido)naphthalen-2-yl)benzoate]
pIC50 [1]: 6.00 to 7.00 | pIC50 [2]: 6.00 to 7.00 | pEC50 [3]: < 6.00 | pEC50 [4]: 6.00 to 7.00

COc1c(-c2ccc3cc(NS(C)(=O)=O)ccc3c2)cc(-n2ccc(=O)[nH]c2=O)cc1-c1ccc(C)s1 [IB-L0-2.73, N-(6-(5-(2,4-dioxo-3,4-dihydropyrimidin-1(2H)-yl)-2-methoxy-3-(5-methylthiophen-2-yl)phenyl)naphthalen-2-yl)methanesulfonamide]
pIC50 [1]: 6.00 to 7.00 | pIC50 [2]: 6.00 to 7.00 | pEC50 [3]: 6.00 to 7.00 | pEC50 [4]: 6.00 to 7.00

COc1c(-c2cccc(Cl)c2)cc(-n2ccc(=O)[nH]c2=O)cc1-c1ccc2cc(NS(C)(=O)=O)ccc2c1 [IB-L0-2.74, N-(6-(3′-chloro-5-(2,4-dioxo-3,4-dihydropyrimidin-1(2H)-yl)-2-methoxybiphenyl-3-yl)naphthalen-2-yl)methanesulfonamide]
pIC50 [1]: 6.00 to 7.00 | pIC50 [2]: 6.00 to 7.00 | pEC50 [3]: < 6.00 | pEC50 [4]: 6.00 to 7.00

COc1c(NS(C)(=O)=O)cc(-n2ccc(=O)[nH]c2=O)cc1-c1ccc2cc(NS(C)(=O)=O)ccc2c1 [IB-L0-2.75, N-(5-(2,4-dioxo-3,4-dihydropyrimidin-1(2H)-yl)-2-methoxy-3-(6-(methylsulfonamido)naphthalen-2-yl)phenyl)methanesulfonamide]
pIC50 [1]: 6.00 to 7.00 | pIC50 [2]: < 6.00 | pEC50 [3]: < 6.00 | pEC50 [4]: < 6.00

COc1c(-c2ccc3cc(NS(C)(=O)=O)ccc3c2)cc(-n2ccc(=O)[nH]c2=O)cc1C(C)(C)C(=O)O [IB-L0-2.77, 2-(5-(2,4-dioxo-3,4-dihydropyrimidin-1(2H)-yl)-2-methoxy-3-(6-(methylsulfonamido)naphthalen-2-yl)phenyl)-2-methylpropanoic acid]
pIC50 [1]: < 6.00 | pIC50 [2]: < 6.00 | melting point: > 300 °C

COc1c(C#C[Si](C)(C)C)cc(-n2ccc(=O)[nH]c2=O)cc1-c1ccc2cc(NS(C)(=O)=O)ccc2c1 [IB-L0-2.78, N-(6-(5-(2,4-dioxo-3,4-dihydropyrimidin-1(2H)-yl)-2-methoxy-3-((trimethylsilyl)ethynyl)phenyl)naphthalen-2-yl)methanesulfonamide]
pIC50 [1]: < 6.00 | pIC50 [2]: < 6.00 | melting point: 175 to 178 °C

COc1c(N2Cc3ccc(NS(C)(=O)=O)cc3C2)cc(-n2ccc(=O)[nH]c2=O)cc1C(C)(C)C [IB-L0-2.79, N-(2-(3-tert-butyl-5-(2,4-dioxo-3,4-dihydropyrimidin-1(2H)-yl)-2-methoxyphenyl)isoindolin-5-yl)methanesulfonamide]
pIC50 [1]: 7.00 to 8.00 | pIC50 [2]: 7.00 to 8.00 | pEC50 [3]: 6.00 to 7.00 | pEC50 [4]: 6.00 to 7.00
